From patent US7652054B2, “Tricyclic compounds useful as angiotensin II agonists” (Vicore Pharma AB, priority 2001, dated 2010)

Tested on: duodenal mucosal alkaline secretion
Assay: Test C: duodenal mucosal alkaline secretion assay
Type: in vivo
Details: co-administration with title compounds of the Examples, anaesthetised rats
Description: Duodenal Mucosal Alkaline Secretion Assay
Compounds were exposed to the duodenal mucosa in barbiturate-anaesthetised rats prepared for in situ titration of duodenal mucosal alkaline secretion, according to the methodology described by Flemström et al in Am. J. Physiol. (1982) 243, G348.

Cc1cc(Cn2cnc3c2C[C@@H](C(=O)O)N(C(=O)C(c2ccccc2)c2ccccc2)C3)ccc1N(C)C [PD123319]
effect of co-administration on the mucosal alkalisation stimulated by title compounds: blocked
